Laboratory results published in PubChem BioAssay (NCI).
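Protocol summary: plate cells (96-well), add compound at 5 concentrations, incubate 48 h, interpolate endpoints linearly. Definition used: TGI = concentration required for complete inhibition of growth.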

Key:
Test in all cases: NCI anticancer screen, dose series, 48 h
CAKI-1 renal = test system: CAKI-1 renal
U251 CNS = test system: U251 CNS
IGROV1 ovarian = test system: IGROV1 ovarian
SR leukemia = test system: SR leukemia
ACHN renal = test system: ACHN renal
HCC-2998 colon = test system: HCC-2998 colon
SK-MEL-28 melanoma = test system: SK-MEL-28 melanoma
UO-31 renal = test system: UO-31 renal
SK-OV-3 ovarian = test system: SK-OV-3 ovarian
RPMI-8226 leukemia = test system: RPMI-8226 leukemia

Structure (SMILES)	TGI (CAKI-1 renal)	TGI (U251 CNS)	TGI (IGROV1 ovarian)	TGI (SR leukemia)	TGI (ACHN renal)	TGI (HCC-2998 colon)	TGI (SK-MEL-28 melanoma)	TGI (UO-31 renal)	TGI (SK-OV-3 ovarian)	TGI (RPMI-8226 leukemia)
CCOC(=O)C1=C(C)N(c2ccc(C)cc2)C2(O)C=CC(=O)C3=C(O)c4ccccc4C(=O)C312 (stereo not given)	> 100 µM	> 100 µM	45.5 µM	2.6 µM	50.1 µM	59.4 µM	60.2 µM	40 µM	> 100 µM	53.5 µM
CC(C)c1nccn1Cc1ccc(Cl)cc1Cl	> 100 µM	> 100 µM	> 100 µM	> 100 µM	> 100 µM	88.6 µM	> 100 µM	> 100 µM	> 100 µM	57.8 µM
COc1cc2c(cc1O)CC[C@@H]1C2CC[C@@]2(C)C1CC[C@@H]2O (stereo not given in full)	> 97.4 µM	> 62.4 µM	> 100 µM	5.44 µM	> 100 µM	34.3 µM	> 100 µM	> 94.7 µM	> 100 µM	13.5 µM
COC(=O)/C=C\C(C#N)(C#N)N=Cc1ccsc1	6.07 µM	29.7 µM	20.9 µM	0.645 µM	2.72 µM	29.6 µM	7.43 µM	8.85 µM	31.3 µM	3.28 µM
